The values below come from patent US8669257B2, “Phenazine derivatives and uses thereof as potassium channel modulators” (The Johns Hopkins University, priority 2007, dated 2014).

The structures appear in SMILES notation.

The experiment concerns calcium influx in Jurkat T-cells. The experiment can be described thus: Calcium imaging assay: store-depletion induced calcium influx in Jurkat T-cells. Conditions: thapsigargin then 2 mM Ca2+; clofazimine preincubated 5 min. In kind it is cell-based, human. On the procedure:
JurkaT-cells were attached to L-lysine-coated glass dishes (MatTek). Cells were loaded with fura-2-AM (Invitrogen_F-1201) for 45 min before they were washed sequentially with growth medium and Ca^2+-free HBSS. Fluorescence excitation wavelengths were set at 350 and 380 nm, respectively, on a Zeiss Axiovert 200M microscope while emission wavelength was set at 510 nm. Changes in intracellular calcium concentrations were determined by fluorescence intensity ratio ([…]/F380).

Regarding `Clc1ccc(COC(Cn2ccnc2)c2ccc(Cl)cc2Cl)cc1` (centres unmarked) [econazole], the “effect on calcium entry” value is “abrogated calcium entry”.
For the molecule `[Gd]` [gadolinium], the “effect on calcium entry” value is “abrogated calcium entry”.
